From patent US11419870B2, “Intermittent dosing of MDM2 inhibitor” (Novartis AG, priority 2014, dated 2022)

Legend:
[1] = test system: white blood cells (WBC), neutrophils and platelets; assay: White blood cells, neutrophils and platelets count (Sysmex); type: in vivo, nude rat
Source text: The white blood cells (WBC), neutrophils and platelets were counted using a Sysmex (XT-2000i).
Blood was collected into commercially prepared EDTA coated microtubes (BD Microtainer, cat #365975).

[2] = test system: Rat Bbc3 (PUMA); assay: mRNA in situ hybridization of host tissues; type: in vivo; conditions: i.v. 20 mg/kg
Protocol: In situ hybridization was performed using the QuantiGene ViewRNA FFPE Assay kit (Affymetrix/Panomics) following the manufacturer's protocol. Gene-specific probe sets for rat Ubc (Ubiquitin C) and Bbc3 (PUMA) mRNAs were custom-designed and synthesized by Affymetrix. Bbc3 probes were used in type 1/Fast Red and Ubc probes were used in type 6/Fast Blue. Slides were processed strictly following the QuantiGene protocol. […] Briefly, five micrometer sections were cut, fixed in 10% formaldehyde, deparaffinized and rehydrated. In order to increase accessibility to mRNAs, slides were then boiled in pre-treatment solution (Affymetrix) and digested with protease QF (Affymetrix) at optimal conditions. Sections were then hybridized for 3 h at 40° C. with custom-designed QuantiGene ViewRNA probes against Bbc3 and the control gene Ubc. A no-probe sample was utilized as a negative control per the Affymetrix manual's recommendations. […] LP-AP type 6 probe detection of signal was done with Fast Blue substrate (blue dots, Cy5 fluorescence) for 30 mn at RT in the dark, followed by LP-AP type 1 probe detection of signal with Fast Red Substrate (red dots, Cy3 fluorescence) for 30 mn at 40° C. […]

[3] = p.o. q3w 27 mg/kg, before the second treatment

COc1ncc(-c2nc3c(n2C(C)C)[C@H](c2ccc(Cl)cc2)N(c2cc(Cl)cn(C)c2=O)C3=O)c(OC)n1 [Compound A, (S)-5-(5-Chloro-1-methyl-2-oxo-1,2-dihydro-pyridin-3-yl)-6-(4-chloro-phenyl)-2-(2,4-dimethoxy-pyrimidin-5-yl)-1-isopropyl-5,6-dihydro-1H-pyrrolo[3,4-d]imidazol-4-one]
recovery of WBCs, neutrophils and platelets ([1]; i.v. q3w 18.2 mg/kg, day 21 post second treatment): only partially recovered
WBCs, neutrophils and platelets ([1]; i.v. q3w 20 mg/kg, after the first treatment): dramatic decrease
WBCs, neutrophils and platelets ([1]; i.v. q3w 20 mg/kg, after the second treatment): extremely low level close to 0
recovery of WBCs, neutrophils and platelets ([1]; i.v. q3w 20 mg/kg, day 21 post treatment, most rats): only partially recovered
WBCs, neutrophils and platelets ([1]; i.v. q3w 13.7 and 18.2 mg/kg, after the first treatment): strong decrease
recovery of WBCs, neutrophils and platelets ([1]; i.v. q3w 13.7 and 18.2 mg/kg, day 21 post treatment): fully recovered
recovery of WBCs and platelets ([1]; p.o. q3w 20 mg/kg, before the second treatment): fully recovered
recovery of WBCs [1, 3]: only partially
recovery of platelets [1, 3]: fully recovered
WBCs, neutrophils and platelets ([1]; p.o. q3w 20 and 27 mg/kg): dose-dependent decrease
time of maximum increase in Puma (Bbc3) mRNA ([2]; jejunum section, post last treatment): 3 h
time of return of Puma mRNA to baseline ([2]; post treatment): 7 days
